“Also recorded” adds a separate entry of the source.
Columns and labels:
ASIC = conditions: cited from earlier work
DEG/ENaC ion channels = test: Short-term food intake in normal mice; format: in vivo, C57BL6 mice; conditions: 15 minutes before feeding
Description: 13 weeks old C57BL6 Female and male mice were singly housed for 2 weeks before the experiment. Mice were starved Sam-6 μm. […] The administrated volume was 10 ml/kg body weight. 15 minutes later, normal chow solid food was provided to the mice and the food consumption at designated time points were measured. P-values were calculated using t-test (unpaired, 2 tails) for data points. *=p<0.05, **=p<0.01, ***=p<0.001
15 weeks old C57BL6 female mice were singly housed for 2 weeks before the experiment. Mice were starved Sam-6 μm. Then Benzamil (Benzamil hydrochloride hydrate) was administrated by intraperitoneal injection, 0.01-10 μmole/kg body weight (3.5621 μg 3.5621 mg/kg b.w.), or saline. The administrated volume was 10 ml/kg body weight. 15 minutes later, normal chow solid food was provided to the mice and the food consumption at designated time points were measured.

[1] = Weight change in LepR^PB obese mice; format: in vivo, LepR^PB female mice; conditions: oral gavage 6 times a week for 5 weeks, 4.1 mg/kg/day Day 1-14, 12.3 mg/kg/day Day 15-35; by day 35
Description: 8 weeks old LepR^PB female mice were used in the experiment. LepR^PB mouse is a model of obesity, which carries a mutation in the gene for the leptin receptor. 20 mice were randomly divided into two groups. […] Amiloride was dissolved in DMSO and diluted in sterile water. […] The injection volume was 10 ml/kg. The mice in control group received 82 μl DMSO/kg/day in sterile water. Body weight was measured. The weight changes compared to the body weight on Day 14 were analyzed.

[2] = Body composition by NMR in LepR^PB obese mice; format: in vivo, LepR^PB female mice; conditions: before and after 5-week administration
ASICs [3] = conditions: cited from earlier work
ASICs [4] = conditions: in vitro; cited from earlier work
[5] = mice; i.t., i.c.v., intraplantar or intravenous; cited from earlier work

Question: Which “potency relative to A-317567” value (ASIC) does the source give for `CC(C)C1c2cc(/C=C/c3ccc4cc(C(=N)N)ccc4c3)ccc2CCN1C` (stereo not drawn) [10a] here?
Answer: about 3 fold

Question: For `CC(C)C1c2cc(C#Cc3ccc4cc(C(=N)N)ccc4c3)ccc2CCN1C` (stereo not drawn) [10b], which “potency relative to A-317567” value (ASIC) is on record?
Answer: about 3 fold

Question: What does the source list for `NC(N)=NC(=O)c1nc(Cl)c(N)nc1N` [Amiloride, 3,5-diamino-6-chloro-N-(diaminomethylidene)pyrazine-2-carboxamide]?
Answer: short-term food intake (DEG/ENaC ion channels; intraperitoneal, 1, 10 or 100 μmole/kg, male C57BL6 mice): suppressed short-term food intake; short-term food intake (DEG/ENaC ion channels; oral gavage, 1, 10 or 100 μmole/kg, female C57BL6 mice): suppressed short-term food intake; body weight change compared to Day 14, vs DMSO [1]: significant reductions in body weight; also recorded: clear reduction in weight; reduction in body fat percentage vs DMSO [2]: significantly more reduction; reduction in body fluid percentage vs DMSO [2]: not significantly different; also recorded: no significant difference; IC50 (ASICs [3]): 10 to 100 µM

Question: For `N=C(N)c1ccc(-c2cc3ccc(C(=N)N)cc3[nH]2)cc1` [DAPI, 4′,6-diamidino-2-phenylindole], which ASICs blockage activity (ASICs [4]) is on record?
Answer: potent ASICs blockage activity

Question: Which ASICs blockage activity (ASICs [4]) does the source give for `N=C(N)c1ccc(/N=N/Nc2ccc(C(=N)N)cc2)cc1` [diminazene] here?
Answer: potent ASICs blockage activity

Question: Which ASICs blockage activity (ASICs [4]) does the source give for `N=C(N)c1ccc(OCCCCCOc2ccc(C(=N)N)cc2)cc1` [pentamidine] here?
Answer: potent ASICs blockage activity

Question: For APETx2, which “excitotoxicity, spasms, convulsions, motor paralysis, ataxia upon in vivo injections” value [5] is on record?
Answer: never produce excitotoxicity, spasms, convulsions, motor paralysis, nor ataxia

Reference: patent US20190167675A1, “METHODS AND COMPOSITIONS FOR APPETITE CONTROL AND WEIGHT MANAGEMENT” (SHANGHAI YAO YUAN BIOTECHNOLOGY CO., LTD., priority 2016, published 2019)
